According to patent US20230085307A1, “PYRIDAZINONE COMPOUND AND HERBICIDE” (NISSAN CHEMICAL CORPORATION, priority 2019, published 2023):

What was measured:
[1] = tested on: lambsquarters; experiment: Test Example 5: herbicidal effect by foliage application, plastic box (Table 20, symbol O); format: in vivo, lambsquarters (Chenopodium album); details: foliage application, 178 g/ha, 3 weeks after application
Summary of the method: (§1)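 Plants sown in sterilized diluvial soil and grown 14 days in a greenhouse at 25° C to 30° C, then sprayed on the foliage with the compound's emulsion diluted in water to a predetermined herbicide amount. Injury to weeds and crops scored three weeks after application on a visual rating scale.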

[2] = tested on: blackgrass; experiment: Test Example 4: herbicidal effect by soil treatment (Table 19, symbol J); format: in vivo, blackgrass (Alopecurus myosuroides); details: AAH 178 g/ha
Summary of the method: (§2)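 Seeds were sown in sterilized diluvial soil and covered with about 1.5 cm of soil. An emulsion formulation diluted with water to a predetermined herbicide amount was sprayed evenly onto the soil surface. Plants grew in a greenhouse at 25° C. to 30° C., and the effect was scored three weeks after application using criteria from an earlier test.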

[3] = tested on: barnyard grass; experiment: Test Example 5: herbicidal effect by foliage application, plastic box (Table 20, symbol H); format: in vivo, barnyard grass (Echinochloa crus-galli); details: foliage application, 178 g/ha, 3 weeks after application
Summary of the method: as §1

[4] = tested on: barnyard grass; experiment: Test Example 4: herbicidal effect by soil treatment (Table 19, symbol H); format: in vivo, barnyard grass (Echinochloa crus-galli); details: AAH 178 g/ha
Summary of the method: as §2

[5] = tested on: wild oat; experiment: Test Example 4: herbicidal effect by soil treatment (Table 19, symbol I); format: in vivo, wild oat (Avena fatua); details: AAH 178 g/ha
Summary of the method: as §2

[6] = tested on: oval-leafed pondweed; experiment: Test Example 2: herbicidal activity, application during weed generation under submerged conditions (Table 17, symbol C); format: in vivo, oval-leafed pondweed (Monochoria vaginalis); details: AAH 178 g/ha; application during weed generation, submerged conditions
Summary of the method: (§3)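 Effect on each weed is rated three weeks post-treatment, using the same scoring criteria as the preceding test. Plants grow from mixed-sown seed in flooded alluvial soil (4 cm water) at 25° C. to 30° C., and are treated at one to two leaves with diluted emulsion dropped onto the water.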

[7] = tested on: lambsquarters; experiment: Test Example 4: herbicidal effect by soil treatment (Table 19, symbol O); format: in vivo, lambsquarters (Chenopodium album); details: AAH 178 g/ha
Summary of the method: as §2

[8] = tested on: chickweed; experiment: Test Example 4: herbicidal effect by soil treatment (Table 19, symbol P); format: in vivo, common chickweed (Stellaria media); details: AAH 178 g/ha
Summary of the method: as §2

[9] = tested on: windgrass; experiment: Test Example 5: herbicidal effect by foliage application, plastic box (Table 20, symbol L); format: in vivo, windgrass (Apera spica-venti); details: foliage application, 178 g/ha, 3 weeks after application
Summary of the method: as §1

[10] = tested on: persian speedwell; experiment: Test Example 5: herbicidal effect by foliage application, plastic box (Table 20, symbol R); format: in vivo, Persian speedwell (Veronica persica); details: foliage application, 178 g/ha, 3 weeks after application
Summary of the method: as §1

[11] = tested on: late watergrass; experiment: Test Example 2: herbicidal activity, application during weed generation under submerged conditions (Table 17, symbol A); format: in vivo, late watergrass (Echinochloa oryzicola); details: AAH 178 g/ha; application during weed generation, submerged conditions
Summary of the method: as §3

[12] = tested on: Italian ryegrass; experiment: Test Example 4: herbicidal effect by soil treatment (Table 19, symbol K); format: in vivo, Italian ryegrass (Lolium multiflorum); details: AAH 178 g/ha
Summary of the method: as §2

[13] = tested on: wild oat; experiment: Test Example 5: herbicidal effect by foliage application, plastic box (Table 20, symbol I); format: in vivo, wild oat (Avena fatua); details: foliage application, 178 g/ha, 3 weeks after application
Summary of the method: as §1

[14] = tested on: Japanese bulrush; experiment: Test Example 2: herbicidal activity, application during weed generation under submerged conditions (Table 17, symbol B); format: in vivo, Japanese bulrush (Schoenoplectus juncoides); details: AAH 178 g/ha; application during weed generation, submerged conditions
Summary of the method: as §3

[15] = tested on: southern crabgrass; experiment: Test Example 5: herbicidal effect by foliage application, plastic box (Table 20, symbol F); format: in vivo, southern crabgrass (Digitaria ciliaris); details: foliage application, 178 g/ha, 3 weeks after application
Summary of the method: as §1

[16] = tested on: blackgrass; experiment: Test Example 5: herbicidal effect by foliage application, plastic box (Table 20, symbol J); format: in vivo, blackgrass (Alopecurus myosuroides); details: foliage application, 178 g/ha, 3 weeks after application
Summary of the method: as §1

[17] = tested on: redroot pigweed; experiment: Test Example 4: herbicidal effect by soil treatment (Table 19, symbol N); format: in vivo, redroot pigweed (Amaranthus retroflexus); details: AAH 178 g/ha
Summary of the method: as §2

[18] = tested on: velvetleaf; experiment: Test Example 5: herbicidal effect by foliage application, plastic box (Table 20, symbol M); format: in vivo, velvetleaf (Abutilon theophrasti); details: foliage application, 178 g/ha, 3 weeks after application
Summary of the method: as §1

[19] = tested on: southern crabgrass; experiment: Test Example 4: herbicidal effect by soil treatment (Table 19, symbol F); format: in vivo, southern crabgrass (Digitaria ciliaris); details: AAH 178 g/ha
Summary of the method: as §2

[20] = tested on: velvetleaf; experiment: Test Example 4: herbicidal effect by soil treatment (Table 19, symbol M); format: in vivo, velvetleaf (Abutilon theophrasti); details: AAH 178 g/ha
Summary of the method: as §2

[21] = tested on: rice flat sedge; experiment: Test Example 3: herbicidal effect by foliage application, Wagner pot (Table 18, symbol E); format: in vivo, rice flat sedge (Cyperus iria); details: 178 g/ha
Summary of the method: (§4)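 Plants were sown in alluvial soil held under 0.1–0.5 cm standing water and grown 14 days in a greenhouse at 25–30 °C. An emulsifiable formulation, water-diluted to the set dose, was then sprayed onto the foliage, and effects were scored three weeks later using previously defined criteria.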

[22] = tested on: green foxtail; experiment: Test Example 4: herbicidal effect by soil treatment (Table 19, symbol G); format: in vivo, green foxtail (Setaria viridis); details: AAH 178 g/ha
Summary of the method: as §2

[23] = tested on: windgrass; experiment: Test Example 4: herbicidal effect by soil treatment (Table 19, symbol L); format: in vivo, windgrass (Apera spica-venti); details: AAH 178 g/ha
Summary of the method: as §2

[24] = tested on: barnyard grass; experiment: Test Example 3: herbicidal effect by foliage application, Wagner pot (Table 18, symbol H); format: in vivo, barnyard grass (Echinochloa crus-galli); details: 178 g/ha
Summary of the method: as §4

[25] = tested on: false cleavers; experiment: Test Example 4: herbicidal effect by soil treatment (Table 19, symbol Q); format: in vivo, false cleavers (Galium spurium); details: AAH 178 g/ha
Summary of the method: as §2

[26] = tested on: Italian ryegrass; experiment: Test Example 5: herbicidal effect by foliage application, plastic box (Table 20, symbol K); format: in vivo, Italian ryegrass (Lolium multiflorum); details: foliage application, 178 g/ha, 3 weeks after application
Summary of the method: as §1

[27] = tested on: persian speedwell; experiment: Test Example 4: herbicidal effect by soil treatment (Table 19, symbol R); format: in vivo, Persian speedwell (Veronica persica); details: AAH 178 g/ha
Summary of the method: as §2

[28] = tested on: green foxtail; experiment: Test Example 5: herbicidal effect by foliage application, plastic box (Table 20, symbol G); format: in vivo, green foxtail (Setaria viridis); details: foliage application, 178 g/ha, 3 weeks after application
Summary of the method: as §1

[29] = tested on: Chinese sprangletop; experiment: Test Example 3: herbicidal effect by foliage application, Wagner pot (Table 18, symbol D); format: in vivo, chinese sprangletop (Leptochloa chinensis); details: 178 g/ha
Summary of the method: as §4

COCCOCOc1c(C)nn(C)c(=O)c1-c1c(-c2ccc(OC(F)F)cc2)sc2ccccc12 [1-202]
effect on lambsquarters (O) [1]: 5 (Herbicidal rate of 90% or more (almost completely withered))
J: blackgrass, herbicidal effect rating [2]: 0 (Herbicidal rate of 5% or less (almost no effect))
effect on barnyard grass (H) [3]: 4 (Herbicidal rate of 70% or more and less than 90%)
H: barnyard grass, herbicidal effect rating [4]: 3 (Herbicidal rate of 40% or more and less than 70%)
I: wild oat, herbicidal effect rating [5]: 0 (Herbicidal rate of 5% or less (almost no effect))
herbicidal effect rating, C: oval-leafed pondweed [6]: 0 (Herbicidal rate of 5% or less (almost no effect))
O: lambsquarters, herbicidal effect rating [7]: 4 (Herbicidal rate of 70% or more and less than 90%)
P: chickweed, herbicidal effect rating [8]: 3 (Herbicidal rate of 40% or more and less than 70%)
effect on windgrass (L) [9]: 0 (Herbicidal rate of 5% or less (almost no effect))
effect on persian speedwell (R) [10]: 5 (Herbicidal rate of 90% or more (almost completely withered))
herbicidal effect rating, A: late watergrass [11]: 2 (Herbicidal rate of 20% or more and less than 40%)
K: Italian ryegrass, herbicidal effect rating [12]: 4 (Herbicidal rate of 70% or more and less than 90%)
effect on wild oat (I) [13]: 0 (Herbicidal rate of 5% or less (almost no effect))
herbicidal effect rating, B: Japanese bulrush [14]: 3 (Herbicidal rate of 40% or more and less than 70%)
effect on southern crabgrass (F) [15]: 1 (Herbicidal rate of 5% or more and less than 20%)
effect on blackgrass (J) [16]: 3 (Herbicidal rate of 40% or more and less than 70%)
N: redroot pigweed, herbicidal effect rating [17]: 5 (Herbicidal rate of 90% or more (almost completely withered))
effect on velvetleaf (M) [18]: 5 (Herbicidal rate of 90% or more (almost completely withered))
F: southern crabgrass, herbicidal effect rating [19]: 0 (Herbicidal rate of 5% or less (almost no effect))
M: velvetleaf, herbicidal effect rating [20]: 2 (Herbicidal rate of 20% or more and less than 40%)
herbicidal effect on E (rice flat sedge), rating 0-5 [21]: 5 (Herbicidal rate of 90% or more (almost completely withered))
G: green foxtail, herbicidal effect rating [22]: 4 (Herbicidal rate of 70% or more and less than 90%)
L: windgrass, herbicidal effect rating [23]: 0 (Herbicidal rate of 5% or less (almost no effect))
herbicidal effect on H (barnyard grass), rating 0-5 [24]: 5 (Herbicidal rate of 90% or more (almost completely withered))
Q: false cleavers, herbicidal effect rating [25]: 3 (Herbicidal rate of 40% or more and less than 70%)
effect on Italian ryegrass (K) [26]: 5 (Herbicidal rate of 90% or more (almost completely withered))
R: persian speedwell, herbicidal effect rating [27]: 4 (Herbicidal rate of 70% or more and less than 90%)
effect on green foxtail (G) [28]: 5 (Herbicidal rate of 90% or more (almost completely withered))
herbicidal effect on D (Chinese sprangletop), rating 0-5 [29]: 3 (Herbicidal rate of 40% or more and less than 70%)
